In patent publication US7629346B2, “Pyrazinecarboxamide derivatives as CB1 antagonists” (Hoffmann-La Roche Inc., priority 2006, dated 2009):
Where two headings read alike, the source gives them in different places.

Tests used:
[1] = target: T1, human cannabis CB1 receptor (Homo sapiens, UniProt P21554); assay: Affinity for cannabinoid CB1 receptors, [3H]-CP-55,940 radioligand binding on HEK cell membranes
T1 construct: expressed in transfected cells; host or cells: human embryonic kidney (HEK) cells, Semliki Forest Virus system, membrane preparation
Description: The affinity of the compounds of the invention for cannabinoid CB1 receptors was determined using membrane preparations of human embryonic kidney (HEK) cells in which the human cannabis CB1 receptor is transiently transfected using the Semliki Forest Virus system in conjunction with [3H]-CP-55,940 as radioligand. After incubation of a freshly prepared cell membrane preparation with the [3H]-ligand, with or without addition of compounds of the invention, separation of bound and free ligand was performed by filtration over glassfiber filters. Radioactivity on the filter was measured by liquid scintillation counting.
The compounds of formula (I) show an excellent affinity for the CB1 receptor, determined with the experimental conditions described in Devane et. al. Mol. Pharmacol. 34 (1988) 605-613.

[2] = several phase III studies; cited from earlier work
[3] = wild-type versus CB1 knockout mice; cited from earlier work
[4] = phase III trial STRATUS-US; cited from earlier work
[5] = 10 and 20 mg daily; cited from earlier work
[6] = [3H]-CP-55,940 as radioligand, membranes of HEK cells transfected with human CB1 receptor, read-out: Ki

T1 sequence (P21554 whole entry): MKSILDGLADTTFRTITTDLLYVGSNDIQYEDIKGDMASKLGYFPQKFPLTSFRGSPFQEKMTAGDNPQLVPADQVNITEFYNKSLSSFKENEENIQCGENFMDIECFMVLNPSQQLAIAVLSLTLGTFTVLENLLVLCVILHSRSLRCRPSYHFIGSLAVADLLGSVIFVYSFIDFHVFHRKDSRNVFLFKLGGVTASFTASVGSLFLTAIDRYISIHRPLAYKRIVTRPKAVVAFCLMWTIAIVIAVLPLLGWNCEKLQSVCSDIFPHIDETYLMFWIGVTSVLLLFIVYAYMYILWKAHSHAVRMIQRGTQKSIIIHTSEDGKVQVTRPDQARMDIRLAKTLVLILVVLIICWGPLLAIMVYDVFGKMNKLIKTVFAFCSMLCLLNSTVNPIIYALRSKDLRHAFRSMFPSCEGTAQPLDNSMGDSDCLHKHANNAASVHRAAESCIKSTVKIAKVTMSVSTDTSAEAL

## CN(c1ncc(C(=O)N[C@@H]2CCCC[C@H]2O)nc1-c1ccc(OC(F)(F)F)cc1)C1CC1 [Example 21, 5-(Cyclopropyl-methyl-amino)-6-(4-trifluoromethoxy-phenyl)-pyrazine-2-carboxylic acid ((1R,2R)-2-hydroxy-cyclohexyl)-amide]
[1]; [6]
  Ki: 35.4 nM

## COCCOc1ncc(C(=O)NC[C@](C)(O)C2CC2)nc1-c1ccc(Cl)cc1 [Example 27, 6-(4-Chloro-phenyl)-5-(2-methoxy-ethoxy)-pyrazine-2-carboxylic acid ((R)-2-cyclopropyl-2-hydroxy-propyl)-amide]
[1]
  Ki: 47.5 nM

## C[C@](O)(CNC(=O)c1cnc(OCc2ncccn2)c(-c2ccc(F)cc2)n1)C1CC1 [Example 69, 6-(4-Fluoro-phenyl)-5-(pyrimidin-2-ylmethoxy)-pyrazine-2-carboxylic acid ((R)-2-cyclopropyl-2-hydroxy-propyl)-amide]
[1]; [6]
  Ki: 12.2 nM

## Cc1c(C(=O)NN2CCCCC2)nn(-c2ccc(Cl)cc2Cl)c1-c1ccc(Cl)cc1 [SR 141716, Rimonabant]
[2]
  body weight, waist circumference and metabolic parameters (plasma HDL, triglycerides and insulin sensitivity): reduced body weight, waist circumference and improved metabolic parameters
[3]
  food intake: reduces food intake in wild-type but not knockout mice
[4]
  efficacy for smoking cessation: has shown efficacy
[5]
  body weight compared to placebo: significantly reduced body weight
